# Laboratory results taken from patent publication US11001802B2, “Surface of a vessel with polystyrene, nitrogen, oxygen and a static sessile contact angle for attachment and cultivation of cells” (Nunc A/S, priority 2008, dated 2021).
# Assays:
# [1] = test system: human ES cell line H1; experiment: Attachment, plating efficiency and passage time of H1 human ES cells on surface modified plates (Examples 3, 4); assay type: cell-based
# Description: Human ES cells of the line H1, at passage 49 were maintained in MEF conditioned media on Nunclon Delta™ plates treated with a 1:30 dilution of growth factor reduced Matrigel™, prior to study. Cells were dissociated from the surface for passage by 1 mg/ml collagenase dissociation or by manual scraping.
# These cells were then seeded onto two untreated wells of the surface modified plates (6-well format). Additionally, one well of each plate was treated with 0.1% xeno-free human gelatin as a control. Cells were also plated directly onto untreated and gelatin-treated wells of Costar™ (cat. no. 3516; Corning, Corning, N.Y.), Falcon™ (cat. no. 351146; Becton Dickinson, Franklin Lakes, N.J.) and Nunclon Delta™ (cat. no. 140675; Thermo Fisher Scientific, Roskilde, Denmark) 6-well plates for negative controls, and plated onto wells treated with 1:30 dilution of growth factor reduced Matrigel™ to provide as positive controls. In all treatments cells were maintained in MEF conditioned media.
# Human ES cells of the line H1, at passage 49 were maintained in MEF conditioned media on Nunclon Delta™ plates treated with a 1:30 dilution of growth factor reduced Matrigel™, prior to study. Cells were dissociated from the surface for passage by 1 mg/ml collagenase dissociation.
# These cells were then seeded onto untreated wells of surface modified plates (6-well format). […]
# [2] = test system: H9 human ES cells; experiment: Adherence of H9 human ES cells to surface modified plates with increasing Y-27632, crystal violet (Example 12); assay type: cell-based
# Description: Passage 49 H9 human ES cells previously plated to 1:30 Matrigel™ treated plasticware and grown in MEF conditioned media supplemented with 8 ng/ml of bFGF were LIBERASE treated and plated to surface modified plates in MEF conditioned media supplemented with 8 ng/ml of bFGF and not otherwise treated or supplemented with increasing concentrations of Y-27632. 24 and 48 hours after plating H9 human ES cells to surface modified plates small colonies could be observed on Surfaces 2-4 and 13, and CellBIND™, and Primaria™ (cat. no. 353846, Becton Dickinson, Franklin Lakes, N.J.) with crystal violet stain (FIGS. 24-26). Furthermore, the adherence of H9 human ES cell colonies was improved by the addition of Y-27632 and the effect was dose responsive (FIG. 25).
structure (smiles),measurement,setting,value
"C[C@@H](N)[C@H]1CC[C@H](C(=O)Nc2ccncc2)CC1 [Surface Y-27632, Y-27632]",plating efficiency,"[1]; H1 (p52) on surface modified plates, 10 μM Y-27632 in MEF conditioned media for 48 hours",significantly increased plating efficiency
same,readiness for passage 4 days after plating,"[1]; H1 on surface modified plates, 10 μM Y-27632 or 0.5 ng/ml C3 exotransferase",could be passaged 4 days after plating
same,human ES cell attachment versus untreated,[2]; 1 to 2 micromolar Y-27632,minimal improvement
same,adherence of human ES cells to surface modified plates,[2]; 4 to 20 micromolar Y-27632,promoted adherence
